Series [1] in a line: Diffusibility: in vivo comparison with an intravasal and an extracellular contrast agent, ligated renal vessels. To be noted: i.v. 20 µmol/kg each, ligated renal vessels, relative to Verbindung 2 set as 100 %. Here is the method: (§1) Als Versuchstiere dienten drei 250 g schwere, männliche (Schering-SPF-) Ratten. Den Tieren wurden die Nierengefäße abgebunden, um eine renale Eliminierung zu verhindern und bei angenommener vernachlässigbarer faekaler Eliminierung ein Maß für Diffusibilität der erfindungsgemäßen Formulierung aus dem Blut in das umgebende Gewebe zu erhalten. Je Tier wurden 0.5 ml (jeweils 10 mmol/L) der folgenden Kontrastmittel-Lösung intravenös appliziert: Gemisch aus je 1 Teil der Verbindung des Beispiels 1g, im folgenden Verbindung 1 genannt, des intravasalen Kontrastmittels Eu-DTPA-Albumin, im folgenden Verbindung 2 genannt, und des extrazellulären Kontrastmittels Dy-DTPA, im folgenden Verbindung 3 genannt. Über einen Katheter in der Arteria carotis communis wurden Blutproben zu folgenden Zeitpunkten entnommen: 15, 30, 45, 60, 90 sec, 3, 5, 10, 15 min p.i. In den gewonnenen Blutproben wurden jeweils parallel die Konzentrationen an Gadolinium (Gd), Europium (Eu) und Dysprosium (Dy) mittels Atomemissionsspektrometrie (ICP-AES) gemessen. Der im Blutraum verbliebene Anteil des intravasalen Kontrastmittels Verbindung 2 (Eu) wurde als 100 % gesetzt. Der im Blutraum verbliebene Anteil der erfindungsgemäßen Formulierung Verbindung 1 (Gd) und der Verbindung 3 (Dy, extrazelluläre Vergleichssubstanz) konnte durch die unterschiedliche Markierung im gleichen Tier verglichen werden und wurde prozentual ins Verhältnis zur Konzentration der Verbindung 2 gesetzt. Damit liefern diese Daten Angaben über den Verbleib der Verbindungen im Intravasalraum.

The conditions of series [2]: rat, in vivo, iv, 100 umol/kg.
Excerpt: Hierfür wurde nach einmaliger intravenöser Applikation (via einer Caudalvene) der Substanzen (Dosis: ≈ 100 µmol Metall pro kg Körpergewicht) die Substanzkonzentration im Blut (basierend auf dem Gd- bzw. Dy-Gehalt) über einen Zeitraum bis zu 120 Minuten p. i. mittels ICP-AES bestimmt. Die pharmakokinetischen Parameter: Verteilungsvolumen (Vss), Gesamtclearance (CLtot) und Eliminationshalbwertszeit (tb) wurden mit einem speziellen Computerprogramm (TOPFIT 2.0; Thomae, Schering, Gödecke) berechnet, wobei ein Zwei-Kompartment-Distributionsmodell zu Grunde gelegt wurde.
Die Gd- und Dy-Gehalte im Blut wurden mittels ICP-AES bestimmt.
Hierfür wurde nach einmaliger intravenöser Applikation (via einer Caudalvene) der Substanzen (Dosis: ≈ 100 µmol Metall pro kg Körpergewicht) die Substanzkonzentration im Blut (basierend auf dem Metallgehalt) über einen Zeitraum bis zu 120 Minuten p. i. mittels ICP-AES bestimmt. Die pharmakokinetischen Parameter: Verteilungsvolumen (Vss), Gesamtclearance (CLtot) und Eliminationshalbwertszeit (tb) wurden mit einem speziellen Computerprogramm (TOPFIT 2.0; Thomae, Schering, Gödecke) berechnet, wobei ein Zwei-Kompartment-Distributionsmodell zu Grunde gelegt wurde.
The nature of series [3]: T1 relaxivity in human plasma (Minispec pc 20). The format is physicochemical. To be noted: for R^1 (T^1-Relaxivity): 0.47 T, 20 MHz, 37 °C, Humanplasma, normalised to one metal atom.
A short description of series [4]: Lymph node accumulation in stimulated guinea pigs after s.c. administration (ICP-AES). The format is in vivo, Meerschweinchen. To be noted: 10 µmol/kg s.c. hind paw, MW ± SD, n=3. From the text: Die erfindungsgemäßen Verbindungen erfüllen alle Voraussetzungen, die von Kontrastmitteln in der indirekten NMR-Lymphographie verlangt werden: gute lokale Verträglichkeit, rascher Abtransport vom Injektionsort, rasche und weitestgehend vollständige Ausscheidung aus dem Gesamtorganismus. Ferner zeigen sie eine hohe Anreicherung über mehrere Lymphknotenstationen und erlauben damit relevante diagnostische Aussagen. So konnte am Meerschweinchenmodell eine hohe Anreicherung über mehrere Lymphknotenstationen (popliteal, inguinal, iliakal) nach s.c. Gabe (2,5-10 µmol/kg Körpergewicht, Injektion in Zwischenzehenräume der Hinterpfote) gezeigt werden. In besonders geeigneten Fällen wurden so in der zweiten (inguinal) und dritten (iliakal) Station noch Gadoliniumkonzentrationen von jeweils ≥ 200 bzw. ≥ 300 µmol/l erhalten. Üblicherweise sind mit den erfindungsgemäßen Verbindungen Lymphknotenkonzentrationen bis zu 1000 µmol/l zu erhalten.
Der Gadolinium-Komplex des Beispiels 19 wurde 30 Min./ 90 Min. nach subkutaner Gabe (10 µmol Gesamtgadolinium/kg KG, Hinterpfote s.c.) an stimulierten Meerschweinchen (komplettes Freund-Adjuvant; jeweils 0,1 ml i.m. in den rechten und linken Ober- und Unterschenkel; 2 Wochen vor Gabe der Prüfsubstanz) hinsichtlich ihrer Lymphknotenanreicherung in drei aufeinanderfolgenden Lymphknotenstationen (popliteal, inguinal, iliakal) untersucht. Hierbei wurden die nachfolgend aufgelisteten Ergebnisse (Ermittlung der Gadolinium-Konzentration mittels ICP-AES) erhalten: […]

Series [5] is described as follows: Retention of the contrast metal at the injection site (paw). The format is in vivo, Meerschweinchen. To be noted: 10 µmol/kg interstitial, MW ± SD, n=3. The text has this:
Nach s.c. Gabe von 10 µmol Gesamtgadolinium (Beispiel 19)/kg Körpergewicht in die Meerschweinchenpfote wurde die Retention des Metalls am Injektionsort zu verschiedenen Zeitpunkten untersucht.

Series [6] is described as follows: Excretion after s.c. administration: metal retention in liver, kidneys, spleen. The format is in vivo, Meerschweinchen. To be noted: 10 µmol/kg interstitial, MW ± SD, n=2. From the text:
Nach subkutaner Gabe von 10 µmol Gesamtgadolinium (Beispiel 19) /kg Körpergewicht in die Hinterpfote des Meerschweines wurde 7 Tage nach Applikation die Retention des Metalls in der Leber, in den Nieren sowie in der Milz untersucht.

For series [7] the following is noted: 39 °C, 0,47 T; cited from earlier work.
Series [8] can be described thus: Diffusibility: in vivo comparison with an intravasal and an extracellular contrast agent, ligated renal vessels. More on the design: species or system Ratte. To be noted: i.v. 20 µmol/kg each, relative to Verbindung 2 set as 100 %. As to the method:
as §1

On to Dy-DTPA [reference compound], for which the results for the “Prozentsatz der im Blutraum verbliebenen Dosis” value in series [1] (30 sec p.i.), in series [1] (3 min p.i.) and in series [1] (10 min p.i.) were 48%, 25% and 21%, respectively. The molecule further yielded a Vss in series [2] of 0.17 L/kg.

On to “1,4,7-Tris{N-3,9-bis(carboxylatomethyl)-6-[N-3-aza-2,5-dioxo-pentan-1,5-diyl]-3,6,9-triazaundecan-1-carboxylato-11-säure, Gd-Komplex, Natriumsalz}-10-[Nacetyl-(2-amino-N-ethyl-N-perfluoroctylsulfonyl)]-1,4,7,10-tetraazacyclododecan [Beispiel 18 d)]”, for which the “R^1 (T^1-Relaxivity)” value in series [3] is recorded as 23,0 L/mmol * sec.

Turning to `CCN(CC(=O)N1CCN(C(=O)CNC(=O)CNC(=O)C(C)N2CCN(CC(=O)[O-])CCN(CC(=O)[O-])CCN(CC(=O)[O-])CC2)CCN(C(=O)CNC(=O)CNC(=O)C(C)N2CCN(CC(=O)[O-])CCN(CC(=O)[O-])CCN(CC(=O)[O-])CC2)CCN(C(=O)CNC(=O)CNC(=O)C(C)N2CCN(CC(=O)[O-])CCN(CC(=O)[O-])CCN(CC(=O)[O-])CC2)CC1)S(=O)(=O)C(F)(F)C(F)(F)C(F)(F)C(F)(F)C(F)(F)C(F)(F)C(F)(F)C(F)(F)F.[Gd+3].[Gd+3].[Gd+3]` (centres unmarked) [Beispiel 19, 1,4,7-Tris{1,4,7-tris(N-carboxylatomethyl)-10-[N-(4,7-diaza-3,6,9-trioxo)-nonan-2,9-diyl]-1,4,7,10-tetraazacyclododecan, Gd-Komplex}-10-[N-acetyl-(2-amino-N-ethyl-N-perfluor-octylsulfonyl)]-1,4,7,10-tetraazacyclododecan], the “R^1 (T^1-Relaxivity)” value in series [3] is 21,4 L/mmol * sec. Also, the “Relaxivity (r1, Plasma)” value in series [3] (plasma) is listed as “≈ 19.5 1*mmol^- ^1*s^-1”. In series [4] (30 min p.i.), the “Gd-Konzentration, Blut” value amounted to 24 ± 3 µmol/L; the “Gd-Konzentration, Lymphknoten iliakal” value was 50 ± 18 µmol/L; the “Gd-Konzentration, Lymphknoten inguinal profund” value was found to be 43 ± 41 µmol/L; the “Gd-Konzentration, Lymphknoten popliteal” value is 345 ± 319 µmol/L. Further, the “Gd-Konzentration, Urin” value in series [4] (30 min p.i.) was determined as 261 ± 167 µmol/L. For the same molecule, in series [4] (90 min p.i.), the “Gd-Konzentration, Blut” value is 25 ± 4 µmol/L; the “Gd-Konzentration, Lymphknoten iliakal” value was determined as 20 ± 8 µmol/L; the “Gd-Konzentration, Lymphknoten inguinal profund” value came to 9 ± 2 µmol/L; the “Gd-Konzentration, Lymphknoten popliteal” value stood at 75 ± 20 µmol/L. Also, the “Gd-Konzentration, Urin” value in series [4] (90 min p.i.) amounted to 348 ± 119 µmol/L. For the same molecule, in series [5] (30 min p.i.), the “Gadolinium-Konzentration an der Injektionsstelle (Pfote)” value was 48,4 ± 10,4 % Dosis. In series [5] (90 min p.i.), the “Gadolinium-Konzentration an der Injektionsstelle (Pfote)” value is given as 8,0 ± 1,7 % Dosis. Moreover, the “Gadolinium-Konzentration an der Injektionsstelle (Pfote)” value in series [5] (7 d p.i.) is listed as 0,7 ± 0,6 % Dosis. In series [6], the “Gadolinium-Gehalt in den Organen 7 d p.i., Leber” value is recorded as 0.09 ± 0.09 % Dosis; the “Gadolinium-Gehalt in den Organen 7 d p.i., Milz” value is 0.00 ± 0.01 % Dosis; the “Gadolinium-Gehalt in den Organen 7 d p.i., Nieren” value came to 0.06 ± 0.04 % Dosis. In series [2], this molecule returned a CL tot of 0.94 mL/min/kg and a Vss of 0.12 L/kg.

As to “1,4,7-Tris{N-[3,9-bis{N-carboxylatomethyl)]-6-[N-{3-aza-2,5-dioxo-pentan)-1,5-diyl]-3,6,9-triazaundecan-1-carboxylato-11-säure, Gd-Komplex, Mononatriumsalz}-10-N-{undecanoyl-〈11-amino-N-[acetyl-(2-amino-N-ethyl-N-perfluoroctylsulfonyl)]) }-1,4,7,10-tetraazacyclododecan [Beispiel 25 f)]”, the “R^1 (T^1-Relaxivity)” value in series [3] is recorded as 15,1 L/mmol * sec.

On to “1,4,7-Tris{N-hexanoyl-2,6-bis〈*amino-N-acetyl-2-[3,9-bis(N-carboxylato-methyl)-6-yl-3,6,9-triazaundecan-1-carboxylato-11-säure, Gd-Komplex, Mononatriumsalz]〉}-10-[N-acetyl-(2-amino-N-ethyl-N-perfluoroctylsulfonyl)]-1,4,7,10-tetraazacyclododecan [Beispiel 26 d)]”, for which, in series [3], the “R^1 (T^1-Relaxivity)” value is listed as 13,0 L/mmol * sec.

Regarding `C[NH2+]C[C@@H](O)[C@@H](O)[C@H](O)[C@@H](O)CO.C[NH2+]C[C@@H](O)[C@@H](O)[C@H](O)[C@@H](O)CO.O=C([O-])CN(CCN(CC(=O)[O-])CC(=O)[O-])CCN(CC(=O)[O-])CC(=O)[O-].[Gd+3]` [Magnevist ®, Di-N-methylglucaminsalz des Gd-DTPA-Komplexes, reference compound], the “R^1 (T^1-Relaxivity)” value in series [3] is 4,8 L/mmol * sec. The “T^1-Relaxivity” value in series [7] was 3,5 - 4,9 mM^-1 · sec^-1.

With `CC(O)CN1CCN(CC(=O)[O-])CCN(CC(=O)[O-])CCN(CC(=O)[O-])CC1.[Gd+3]` (centres unmarked) [Pro Hance®], the “T^1-Relaxivity” value in series [7] was 3,5 - 4,9 mM^-1 · sec^-1.

As to “1,4,7-Tris{1,4,7-tris-(N-carboxylatomethyl)-10-[N-(4,7-diaza-3,6,9-trioxo)-nonan-2,9-diyl]-1,4,7,10-tetraazacyclododecan, Gd-Komplex-10-(N-22F,22F,22F,21F,21F, 20F,20F,19F, 19F, 18F, 18F, 17F,17F, 16F, 16F, 15F, 15F-heptadecafluor-12-oxadocosanoyl)-1,4,7,10-tetraazacyclododecan [Beispiel 14 e)]”, the “R^1 (T^1-Relaxivity)” value in series [3] is 19,3 L/mmol * sec.

Turning to “Gadolinium-III-Komplex des 1,4,7,10-Tetracarboxymethyl-1,4,7,10-tetraazacyclododecans [Dotarem®]”, the “T^1-Relaxivity” value in series [7] is on record as 3,5 - 4,9 mM^-1 · sec^-1.

On to `CNC(=O)CN(CCN(CCN(CC(=O)[O-])CC(=O)NC)CC(=O)[O-])CC(=O)[O-].[Gd+3]` [Omniscan®], for which the “T^1-Relaxivity” value in series [7] is given as 3,5 - 4,9 mM^-1 · sec^-1.

Regarding “Verbindung 2: intravasales Kontrastmittel Eu-DTPA-Albumin”, the “Prozentsatz der im Blutraum verbliebenen Dosis” value in series [8] (30 sec p.i.), in series [8] (3 min p.i.) and in series [8] (10 min p.i.) was 100% each time.

On to “1,4,7-Tris(N-3,3,6-tris(carboxylatomethyl)-6-[N-3-aza-2,5-dioxo-pentan-1,5-diyl]-3,6,9-triazaundecan-1,11-disäure, Gd-Komplex, Mononatriumsalz}-10-2H,2H,4H,4H,5H,5H-3-oxa-perfluor-tridecanoyl)-1,4,7,10-tetraazacyclododecan [Beispiel 8 b)]”, for which the “R^1 (T^1-Relaxivity)” value in series [3] is reported as 20,6 L/mmol * sec.

Consider “1,4,7-Tris{N-hexanoyl-2,6-bis〈amino-N-acetyl-2-[aminopropanoyl-(2-yl)]-[1,4,7-tris(Ncarboxylatomethyl)-1,4,7,10-tetraazacyclododecan-10-yl, Gd-Komplex]〉}-10-[N-acetyl-(2-amino-N-ethyl-N-perfluoroctylsulfonyl)]-1,4,7,10-tetraazacyclododecan [Beispiel 27]”, for which the “R^1 (T^1-Relaxivity)” value in series [3] is given as 16,1 L/mmol * sec.

What is called Vss is the apparent volume that relates the amount in the body to the concentration in plasma or blood.

These data come from patent EP0993306B1, “PERFLUOROALKYLATED OLIGOMER COMPOUNDS, PROCESS FOR PREPARING THE SAME AND THEIR USE IN NMR DIAGNOSIS” (SCHERING AKTIENGESELLSCHAFT, priority 1997, dated 1999).
